The values that follow come from patent US20260183270A1, “PHARMACEUTICAL COMPOSITION COMPRISING AAK1 INHIBITOR” (Xizang Haisco Pharmaceutical Co., Ltd., priority 2022, published 2026).

Structures are written as SMILES.

For one data set, the target named is T1, hERG potassium channel (Homo sapiens, UniProt Q12809).
T1 construct: expressed in transfected cells
The experiment in a line: Test for hERG potassium ion channel (manual whole cell patch-clamp, CHO cells). The class given is cell-based. The text has this: Experimental platform: electrophysiological manual patch-clamp system
Cell line: Chinese hamster ovary (CHO) cell line stably expressing hERG potassium ion channel
Experimental method: in CHO (Chinese Hamster Ovary) cells stably expressing hERG potassium channel, the whole cell patch-clamp technique was used to record hERG potassium channel current at room temperature. The glass microelectrode was made of a glass electrode blank (BF150-86-10, Sutter) by a puller. The tip resistance after filling the liquid in the electrode was about 2-5 MΩ. The glass microelectrode can be connected to the patch-clamp amplifier by inserting the glass microelectrode into an amplifier probe. The clamping voltage and data recording were controlled and recorded by the pClamp 10 software through a computer. The sampling frequency was 10 kHz, and the filtering frequency was 2 kHz. […]
Data processing: data analysis processing was carried out by using pClamp 10, GraphPad Prism 5 and Excel software. The inhibition degree of hERG potassium current (peak value of hERG tail current induced at −50 mV) at different compound concentrations was calculated by the following formula: […]
Compound IC50 was calculated using GraphPad Prism 5 software by fitting according to the following equation: […]
(In general: The hERG channel carries a current that helps repolarise heart muscle cells.)

The target in a further data set is T2, AAK1 (Homo sapiens, UniProt Q2M2I8).
T2 construct: purchased Signalchem A01-11G-10
T2 sequence (Q2M2I8 27-365 limits assumed): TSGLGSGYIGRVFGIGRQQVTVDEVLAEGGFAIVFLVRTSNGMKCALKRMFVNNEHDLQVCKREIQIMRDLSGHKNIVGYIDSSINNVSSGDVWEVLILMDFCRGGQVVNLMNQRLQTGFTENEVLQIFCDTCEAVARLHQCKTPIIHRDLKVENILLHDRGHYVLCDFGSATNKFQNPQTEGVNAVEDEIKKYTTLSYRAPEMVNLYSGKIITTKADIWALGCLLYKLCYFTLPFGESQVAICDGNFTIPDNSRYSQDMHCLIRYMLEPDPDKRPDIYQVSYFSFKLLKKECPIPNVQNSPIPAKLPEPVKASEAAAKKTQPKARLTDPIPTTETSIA
The experiment in a line: In vitro AAK1 enzyme activity assay (ADP-Glo). Type of data set: biochemical. As to conditions: read-out: Inhibitory activity against AAK1 IC50. As for the experimental part:
Compound stock solution (concentration: 10 mM, dissolved in DMSO) was diluted with DMSO to 0.2 mM and then diluted with DMSO in 5-fold gradient to obtain compound solutions with 10 concentrations. Subsequently, the compound solutions with different concentrations were diluted 50-fold in 1× kinase reaction buffer (containing 40 mM Tris, 20 mM MgCl2, 0.1% BSA and 0.5 mM DTT) for later use. AAK1 (Signalchem, Cat #A01-11G-10) was diluted with 1× kinase reaction buffer to 2-fold the final concentration (final concentrations: 30 nM and 28 nM). AAK1 was added to a 384-well white plate at 2 μL/well, and the compounds were then added at 1 μL/well. The plate was sealed with a plate-sealing film, centrifuged at 1000 rpm for 30 seconds and then placed at room temperature for 10 minutes. […] The RLU (Relative luminescence unit) signal values were read using a Biotek multimode microplate reader and the percent inhibition was calculated according to the following formula: [1−(LUMcompound−LUMpositive control)/(LUMnegative control−LUMpositive control)]×100. IC50 values were calculated using Graphpad 7.0 software using a four-parameter non-linear fit equation.

Data set [1] can be described thus: Mouse brain/blood ratio test. Type of data set: in vivo, ICR mice. As to conditions: mice. On the procedure: male ICR mice, 20 to 25 g, 9 mice/compound. purchased from Chengdu Ddossy Experimental Animals Co., Ltd.
on the day of the experiment, 18 ICR mice were randomly grouped according to their body weights. The animals were fasted with water available for 12 to 14 h one day before the administration and were fed 4 h after the administration.
After intragastric administration, whole blood and brain tissue were collected at 0.5 h, 4 h and 24 h, and the whole blood was centrifuged to separate the plasma. The brain tissue was rinsed with cold physiological saline to remove the residual blood on the surface, drained out and then homogenized. Before analysis and detection, all samples were stored at −80 C, and the samples were quantitatively analyzed by LC-MS/MS.

Data set [2] has as its system SNL-induced mouse model of neuropathic pain. Nature of the data set: Spinal nerve ligation (SNL)-induced mouse model of neuropathic pain, mechanical pain threshold (Von Frey). The class given is in vivo, C57BL/6J mice. As to conditions: for Course of analgesic efficacy over time / Effect on pain threshold (MPT) of mice after SNL modeling: 10 mg/kg intragastric; for Course of analgesic efficacy over time: 1 to 6 hours after administration; for Effect on pain threshold (MPT) of mice after SNL modeling: single administration, 1, 3 and 6 hours after administration. The text has this:
Male C57BL/6J mice (8 weeks old) purchased from Jinan Pengyue Experimental Animal Breeding Co., Ltd. were adaptively raised for one week and then the models were established. The specific establishment method comprises the following steps: • 1) disinfecting the surgical instrument and ligature; • 2) anesthetizing the mice with isoflurane and then placing the mice on the operating table in the prone position; • 3) shaving the fur near the hip bones of the mice and preparing the skin, and making an incision of about 2 cm along the spine; • 4) isolating the fascia along the spine, performing blunt dissection of the muscles, and exposing the transverse process of L5; • 5) carefully cutting the transverse process of L5 with forceps and exposing the L5 spinal nerve; • 6) carefully isolating the L5 nerve with a glass dissecting needle, and ligating the L5 nerve with a 5-0 ligature; and • 7) suturing the muscles and skin and disinfecting same with iodophor.
The mice that were unsuccessful in modeling were eliminated the next day after modeling (marker for successful modeling: mice with their hind paws curled up). After modeling, the mice were stroked for 3 to 5 minutes every day to ensure that the animals were familiar with the experimenter, and then the mice were placed on a metal pain measuring frame for 40 to 60 minutes of adaptation. After 3 days of acclimatization, Von Frey filaments (Aesthesio®; 0.16 g, 0.4 g, 0.6 g, 1.0 g, 1.4 g and 2.0 g) were used to test the pre-administration baseline values of the animals (Ascending testing approach). Each animal was tested twice and average values were taken, with intervals of at least 5 minutes. The animals were grouped according to the baseline values (10 animals per group). After the grouping, LX-9211 (1 and 10 mg/kg), compound 2 (1 and 10 mg/kg) or vehicle (40% PEG-400+10% ethanol+15% Tween 80+35% physiological saline) was administered intragastrically. The mice were tested for the mechanical pain threshold (MPT) at 1, 3 and 6 hours after the administration. Time-MPT curve was plotted using GraphPad 8.3.0, and statistical analysis was performed.

Data set [3] can be described thus: Pharmacokinetic test of dogs. Type of data set: in vivo. As to conditions: beagle dogs, i.g. (3 mg/kg). As for the experimental part: Experimental animals: male beagle dogs, about 8 to 11 kg, 6 beagle dogs/compound, purchased from Beijing Marshall Biotechnology Co., Ltd.
Experimental method: on the day of the experiment, 12 beagle dogs were randomly grouped according to their body weights. The animals were fasted with water available for 12 to 14 h one day before the administration and were fed 4 h after the administration. Administration was performed as per Table 2.
Before and after the administration, 1 ml of blood was taken from the jugular veins or limb veins, and placed in an EDTAK2 centrifuge tube. Centrifugation was performed at 5000 rpm at 4° C. for 10 min, and plasma was collected. Blood sampling time points for both the LX9211 intravenous administration group and intragastric administration group include: 0 min, 5 min, 15 min, 30 min, 1 h, 2 h, 4 h, 6 h, 8 h, 10 h, 12 h, and 24 h, and blood sampling time points for both the compound 9 intravenous administration group and intragastric administration group include: 0 min, 5 min, 15 min, 30 min, 1 h, 2 h, 4 h, 6 h, 8 h, 10 h, 12 h, 24 h, and 48 h. Before analysis and detection, all samples were stored at −80° C., and the samples were quantitatively analyzed by LC-MS/MS.

T1 sequence (Q12809 whole entry): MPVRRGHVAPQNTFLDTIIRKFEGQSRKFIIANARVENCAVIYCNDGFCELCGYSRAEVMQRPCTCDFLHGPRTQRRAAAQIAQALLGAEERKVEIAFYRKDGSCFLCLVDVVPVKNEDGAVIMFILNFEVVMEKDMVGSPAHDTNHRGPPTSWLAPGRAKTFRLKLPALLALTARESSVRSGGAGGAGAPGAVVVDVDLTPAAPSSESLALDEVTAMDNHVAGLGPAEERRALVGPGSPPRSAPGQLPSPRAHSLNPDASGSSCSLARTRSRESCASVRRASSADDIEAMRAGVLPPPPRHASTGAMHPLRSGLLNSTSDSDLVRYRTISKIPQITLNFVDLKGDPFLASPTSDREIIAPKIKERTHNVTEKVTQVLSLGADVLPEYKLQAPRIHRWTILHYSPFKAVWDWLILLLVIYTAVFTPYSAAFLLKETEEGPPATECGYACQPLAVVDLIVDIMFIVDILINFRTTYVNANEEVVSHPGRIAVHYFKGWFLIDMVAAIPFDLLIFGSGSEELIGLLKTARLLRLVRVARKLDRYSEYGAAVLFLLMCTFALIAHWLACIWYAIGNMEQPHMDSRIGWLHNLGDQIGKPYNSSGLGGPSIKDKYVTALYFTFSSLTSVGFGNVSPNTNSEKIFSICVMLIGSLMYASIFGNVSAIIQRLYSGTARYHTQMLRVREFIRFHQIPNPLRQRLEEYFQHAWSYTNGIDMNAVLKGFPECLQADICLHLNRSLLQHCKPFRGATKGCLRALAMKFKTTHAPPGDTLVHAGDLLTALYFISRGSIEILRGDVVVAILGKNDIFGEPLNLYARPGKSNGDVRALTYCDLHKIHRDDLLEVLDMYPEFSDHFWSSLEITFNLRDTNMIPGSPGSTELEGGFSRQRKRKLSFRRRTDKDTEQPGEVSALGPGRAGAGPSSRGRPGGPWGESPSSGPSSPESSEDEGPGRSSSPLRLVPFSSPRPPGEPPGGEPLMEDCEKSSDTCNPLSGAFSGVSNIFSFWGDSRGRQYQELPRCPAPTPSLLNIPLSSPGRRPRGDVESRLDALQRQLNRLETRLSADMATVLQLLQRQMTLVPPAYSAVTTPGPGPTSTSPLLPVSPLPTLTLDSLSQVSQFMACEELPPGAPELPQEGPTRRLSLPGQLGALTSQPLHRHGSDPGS

For orientation: IC50 means the midpoint of a concentration-inhibition curve. In general, Kp refers to the ratio of the level in a tissue or fluid to that in plasma or blood. On to `C=C(C)CC(C)(N)COc1ccc(-c2ccnc(C(F)F)c2)nc1C(F)F` (single isomer, unassigned) [Compound 2], for which the inhibition at 40 µM at hERG potassium channel (human, CHO cells stably expressing hERG potassium channel, at 40 μM, read-out: Inhibition rate at the highest concentration tested (hERG potassium channel current)) came out at 86.6 ± 1.77%. The IC50 at hERG potassium channel (read-out: IC50 (hERG potassium channel current)) was determined as 8.75 µM; at AAK1 it was 10.9 nM. Besides, the Kp in data set [1] (male, ICR, mouse, brain/plasma, po, i.g. (10 mg/kg)) is 64.5. In data set [1] (male, ICR, mouse, plasma, po, i.g. (10 mg/kg), read-out: Plasma AUC0-t), the AUC(0-t) amounted to 572 ng·h/mL. In addition, the “Brain penetrability (in words)” value in data set [1] is “high brain penetrability”. Also, in data set [1] (i.g. (10 mg/kg)), the “Brain tissue AUC0-t” value stood at 36853 ng·h/g. For the same molecule, the “Course of analgesic efficacy over time” value in data set [2] is listed as “tended to be stable”. In addition, the “Effect on pain threshold (MPT) of mice after SNL modeling” value in data set [2] is on record as “effectively increased the pain threshold”. Also, the “Efficacy compared with LX-9211” value in data set [2] (at 3 and 6 hours after the administration) was “better efficacy than LX-9211”. The “Pharmacodynamic activity as an analgesic compared with LX-9211” value in data set [2] (overall conclusion) was “better pharmacodynamic activity than LX-9211”.

In turn, `COC(=O)Nc1cc(-c2ccc(OC[C@@](C)(N)CC(C)(C)F)c(C(F)F)n2)ccn1` [Compound 9] had a F in data set [3] of 113 ± 6.9%.

On to `COC(=O)Nc1cc(-c2ccc(OC[C@@](C)(N)CC(C)(C)F)c(C)n2)ccn1` [Compound 10], for which, at AAK1, the half-maximal inhibitory concentration (IC50) turned out to be 13.7 nM.

With `CC(C)C[C@](C)(N)COc1ccc(-c2ccnc(C(F)F)c2)nc1C(F)F` [LX-9211, reference compound], the F in data set [3] amounted to 22.2 ± 8.1%. In addition, the “Brain tissue AUC0-t” value in data set [1] (i.g. (10 mg/kg)) is 110424 ng·h/g. Moreover, in data set [2], the “Course of analgesic efficacy over time” value is reported as “efficacy gradually decreased thereafter” and the “Effect on pain threshold (MPT) of mice after SNL modeling” value is recorded as “effectively increased the pain threshold”.
